Source: the supplement of paper PMC11208160

Assay: recombinant barcode read abundance after kanamycin selection (control-corrected) (log10(CPM+1)); higher = more efficient recombination; sequences stand for … in AGTGCAGAGAAAATCGGCCAGTTTTCTCTGCCTGCAGTCCGCATGCCGT…ATTTATGCAGCGGACTGCCTTTCTCCCAAAGTGATAAACCGGACAGTATCATGGACCGGTTTTCCCGGTAATCCGTATTTGCAAGGTTGGTTTCACT; site = the 11-nt target
Outline: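 Targets and IS621 bridge RNA target-binding loops were paired in oligos, each with a promoter, a barcode and the J23119-driven first 104 bridge RNA bases. A vector carrying the remaining 73 bp and a T7-inducible recombinase received these by Gibson cloning, and the pool was co-electroporated into E. coli with a donor plasmid. Duplicate plates contained chloramphenicol/ampicillin LB agar (control) or chloramphenicol/ampicillin/kanamycin with 0.1 mM IPTG. Recombination efficiency comes from averaged, control-corrected counts per million of recombinant-junction barcodes, reported as log10(CPM+1).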

| Sequence | recombinant barcode read abundance (log10) |
| --- | --- |
| GGTGCCCCGTGGGTTCTAACCTGTTGCCGCG [GGTGCCCCTCG_LTGcore_CG_RTGcore_CG] (site GGTGCCCCTCG) (LTG core: CG, RTG core: CG) | 0.329 |
| TTATAAAAATGGGTTCTAACCTGTTGCCTTT [TTATAAACTAG_LTGcore_AA_RTGcore_AA] (site TTATAAACTAG) (LTG core: AA, RTG core: AA) | 0.038 |
| CGAGCCCCTTGGGTTCTAACCTGTTGCTGTA [CGAGCCCCTCA_LTGcore_CT_RTGcore_TA] (site CGAGCCCCTCA) (LTG core: CT, RTG core: TA) | 0.68 |
| GGCTCCCGGTGGGTTCTAACCTGTTGCGGCC [GGCTCCCCTCC_LTGcore_GG_RTGcore_GG] (site GGCTCCCCTCC) (LTG core: GG, RTG core: GG) | 0.203 |
| ATGCTTTAGTGGGTTCTAACCTGTTGCCTCT [ATGCTTTCTAG_LTGcore_AG_RTGcore_AG] (site ATGCTTTCTAG) (LTG core: AG, RTG core: AG) | 0.0908 |
| GTCGCCCCTTGGGTTCTAACCTGTTGCTAAC [GTCGCCCCTTA_LTGcore_CT_RTGcore_GT] (site GTCGCCCCTTA) (LTG core: CT, RTG core: GT) | 0.102 |
| GCGCGACCCTGGGTTCTAACCTGTTGCTTGG [GCGCGACCTAA_LTGcore_CC_RTGcore_CC] (site GCGCGACCTAA) (LTG core: CC, RTG core: CC) | 0.0343 |
| GGGAGCCCTTGGGTTCTAACCTGTTGCTGCA [GGGAGCCCTCA_LTGcore_CT_RTGcore_TG] (site GGGAGCCCTCA) (LTG core: CT, RTG core: TG) | 0.122 |
| GGGCGTGTTTGGGTTCTAACCTGTTGCCTAA [GGGCGTGCTAG_LTGcore_TT_RTGcore_TT] (site GGGCGTGCTAG) (LTG core: TT, RTG core: TT) | 0.0616 |
| GAGTCCTCTTGGGTTCTAACCTGTTGCCTCC [GAGTCCTCTAG_LTGcore_CT_RTGcore_GG] (site GAGTCCTCTAG) (LTG core: CT, RTG core: GG) | 1.21 |
| AAACAGTCTTGGGTTCTAACCTGTTGCCTAC [AAACAGTCTAG_LTGcore_CT_RTGcore_GT] (site AAACAGTCTAG) (LTG core: CT, RTG core: GT) | 0.553 |
| AGGCGGTGATGGGTTCTAACCTGTTGCTTAG [AGGCGGTCTAA_LTGcore_GA_RTGcore_CT] (site AGGCGGTCTAA) (LTG core: GA, RTG core: CT) | 0.09 |
| CGAGCCCCCTGGGTTCTAACCTGTTGCTGGG [CGAGCCCCTCA_LTGcore_CC_RTGcore_CC] (site CGAGCCCCTCA) (LTG core: CC, RTG core: CC) | 0.0674 |
| GGCTCCCCTTGGGTTCTAACCTGTTGCGGAT [GGCTCCCCTCC_LTGcore_CT_RTGcore_AT] (site GGCTCCCCTCC) (LTG core: CT, RTG core: AT) | 0.0958 |
| AGGAGGTAATGGGTTCTAACCTGTTGCCTAG [AGGAGGTCTAG_LTGcore_AA_RTGcore_CT] (site AGGAGGTCTAG) (LTG core: AA, RTG core: CT) | 0.278 |
| CGAGCCCGGTGGGTTCTAACCTGTTGCTGCC [CGAGCCCCTCA_LTGcore_GG_RTGcore_GG] (site CGAGCCCCTCA) (LTG core: GG, RTG core: GG) | 0.18 |
| ATGCTTTCTTGGGTTCTAACCTGTTGCCTTT [ATGCTTTCTAG_LTGcore_CT_RTGcore_AA] (site ATGCTTTCTAG) (LTG core: CT, RTG core: AA) | 0.103 |
| CATATTACTTGGGTTCTAACCTGTTGCCTTT [CATATTACTAG_LTGcore_CT_RTGcore_AA] (site CATATTACTAG) (LTG core: CT, RTG core: AA) | 0.0756 |
| AAACAGTAATGGGTTCTAACCTGTTGCCTTT [AAACAGTCTAG_LTGcore_AA_RTGcore_AA] (site AAACAGTCTAG) (LTG core: AA, RTG core: AA) | 0.199 |
| CGGTCCCGCTGGGTTCTAACCTGTTGCCAAG [CGGTCCCCTTG_LTGcore_GC_RTGcore_CT] (site CGGTCCCCTTG) (LTG core: GC, RTG core: CT) | 0.313 |
| GGGCGGATCTGGGTTCTAACCTGTTGCGGGA [GGGCGGACTCC_LTGcore_TC_RTGcore_TC] (site GGGCGGACTCC) (LTG core: TC, RTG core: TC) | 0.265 |
| TAAGAATGATGGGTTCTAACCTGTTGCCTTC [TAAGAATCTAG_LTGcore_GA_RTGcore_GA] (site TAAGAATCTAG) (LTG core: GA, RTG core: GA) | 0.176 |
| AGGCCTCGATGGGTTCTAACCTGTTGCCTAG [AGGCCTCCTAG_LTGcore_GA_RTGcore_CT] (site AGGCCTCCTAG) (LTG core: GA, RTG core: CT) | 0.24 |

| Sequence | recombinant barcode read abundance (log10) |
| --- | --- |
| ATGTCCCCTTGGGTTCTAACCTGTTGCTCCC [ATGTCCCCTGA_LTGcore_CT_RTGcore_GG] (site ATGTCCCCTGA) (LTG core: CT, RTG core: GG) | 0.175 |
| TGATACCATTGGGTTCTAACCTGTTGCGTAT [TGATACCCTAC_LTGcore_AT_RTGcore_AT] (site TGATACCCTAC) (LTG core: AT, RTG core: AT) | 0.0803 |
| CGCGCCCTCTGGGTTCTAACCTGTTGCGGGA [CGCGCCCCTCC_LTGcore_TC_RTGcore_TC] (site CGCGCCCCTCC) (LTG core: TC, RTG core: TC) | 0.307 |
| GGACACCCTTGGGTTCTAACCTGTTGCCTAA [GGACACCCTAG_LTGcore_CT_RTGcore_TT] (site GGACACCCTAG) (LTG core: CT, RTG core: TT) | 1.19 |
| GTCGCCCTTTGGGTTCTAACCTGTTGCTAAG [GTCGCCCCTTA_LTGcore_TT_RTGcore_CT] (site GTCGCCCCTTA) (LTG core: TT, RTG core: CT) | 0.137 |
| GGTGCCCCGTGGGTTCTAACCTGTTGCCGAG [GGTGCCCCTCG_LTGcore_CG_RTGcore_CT] (site GGTGCCCCTCG) (LTG core: CG, RTG core: CT) | 0.0559 |
| AAACATGCTTGGGTTCTAACCTGTTGCCTTG [AAACATGCTAG_LTGcore_CT_RTGcore_CA] (site AAACATGCTAG) (LTG core: CT, RTG core: CA) | 1.17 |
| TAAGAATATTGGGTTCTAACCTGTTGCCTAG [TAAGAATCTAG_LTGcore_AT_RTGcore_CT] (site TAAGAATCTAG) (LTG core: AT, RTG core: CT) | 0.124 |
| CGGTCCCGCTGGGTTCTAACCTGTTGCCAGC [CGGTCCCCTTG_LTGcore_GC_RTGcore_GC] (site CGGTCCCCTTG) (LTG core: GC, RTG core: GC) | 0.475 |
| GCGGGACCATGGGTTCTAACCTGTTGCCTTG [GCGGGACCTAG_LTGcore_CA_RTGcore_CA] (site GCGGGACCTAG) (LTG core: CA, RTG core: CA) | 0.182 |
| TGATACCGCTGGGTTCTAACCTGTTGCGTAG [TGATACCCTAC_LTGcore_GC_RTGcore_CT] (site TGATACCCTAC) (LTG core: GC, RTG core: CT) | 0.164 |
| GTCGCCCAATGGGTTCTAACCTGTTGCTATT [GTCGCCCCTTA_LTGcore_AA_RTGcore_AA] (site GTCGCCCCTTA) (LTG core: AA, RTG core: AA) | 0.305 |
| AAACATGAGTGGGTTCTAACCTGTTGCCTCT [AAACATGCTAG_LTGcore_AG_RTGcore_AG] (site AAACATGCTAG) (LTG core: AG, RTG core: AG) | 0.191 |
| TCTACCCATTGGGTTCTAACCTGTTGCTGAT [TCTACCCCTCA_LTGcore_AT_RTGcore_AT] (site TCTACCCCTCA) (LTG core: AT, RTG core: AT) | 0.00785 |
| CGAGCCCATTGGGTTCTAACCTGTTGCTGAG [CGAGCCCCTCA_LTGcore_AT_RTGcore_CT] (site CGAGCCCCTCA) (LTG core: AT, RTG core: CT) | 0.104 |
| GGTGCCCCTTGGGTTCTAACCTGTTGCCGTG [GGTGCCCCTCG_LTGcore_CT_RTGcore_CA] (site GGTGCCCCTCG) (LTG core: CT, RTG core: CA) | 0.126 |
| AGGCGGGCTTGGGTTCTAACCTGTTGCGGCT [AGGCGGGCTCC_LTGcore_CT_RTGcore_AG] (site AGGCGGGCTCC) (LTG core: CT, RTG core: AG) | 0.172 |
| GGGCGTGCTTGGGTTCTAACCTGTTGCCTCA [GGGCGTGCTAG_LTGcore_CT_RTGcore_TG] (site GGGCGTGCTAG) (LTG core: CT, RTG core: TG) | 1.06 |
| TGTATTCTCTGGGTTCTAACCTGTTGCCTAG [TGTATTCCTAG_LTGcore_TC_RTGcore_CT] (site TGTATTCCTAG) (LTG core: TC, RTG core: CT) | 0.0135 |
| ACGGGACTGTGGGTTCTAACCTGTTGCAGCA [ACGGGACCTCT_LTGcore_TG_RTGcore_TG] (site ACGGGACCTCT) (LTG core: TG, RTG core: TG) | 0.179 |
| AAACAGTGGTGGGTTCTAACCTGTTGCCTCC [AAACAGTCTAG_LTGcore_GG_RTGcore_GG] (site AAACAGTCTAG) (LTG core: GG, RTG core: GG) | 0.0531 |
| TAAGAATCGTGGGTTCTAACCTGTTGCCTCG [TAAGAATCTAG_LTGcore_CG_RTGcore_CG] (site TAAGAATCTAG) (LTG core: CG, RTG core: CG) | 0.0781 |
